In patent publication US20260327263A1, “Anti-Bacterial Peptides” (priority 2023, published 2026):
Converted amounts (≈) assume the structure as drawn. “And” between values parts separate entries of the source, which are not always exact repeats. Equal entries are not always repeated. Where two headings read alike, the source gives them in different places. Where a SMILES comes first, the peptide text is derived from it. Where no end group is shown, it is not given here. [ ]: non-standard residue; d: D form. 1Nal = N[C@@H](Cc1cccc2ccccc12)C(=O)O; Aib = CC(C)(N)C(=O)O

What was measured:
[1] = test system: Pseudomonas aeruginosa (PA); experiment: Broth microdilution anti-bacterial assay (CLSI), Pseudomonas aeruginosa; assay type: cell-based, Pseudomonas aeruginosa (ATCC 14213); conditions: for anti-bacterial activity (in words): PA and SA
Description: (§1) To evaluate their anti-bacterial potency, broth microdilution method as per the CLSI guidelines 1 was used. […] The anti-bacterial potency of the tested agents is quantified using minimum inhibitory concentration (MIC) and minimum bactericidal concentration (MBC). […] To obtain the MBC data, 1X, 2X and 4× MIC of the peptide variants were plated to obtain the number of viable colonies compared to the original inoculum.
(§2) Pseudomonas aeruginosa (ATCC 14213, PA), and methicillin resistant Staphylococcus aureus (BAA1717-USA 300, SA) were obtained from The American Type Culture Collection (ATCC).
(§3) Examination of the potency of modified short peptides against PA and SA strains was performed by using the broth microdilution protocol from the Clinical and Laboratory Standards Institute (CLSI) guidelines (CLSI 2012) as described. Briefly, five freshly plated bacteria colonies were grown in cation adjusted MH2 broth (BD Biosciences) in a shaker incubator at 37° C., 220 RPM. Cells were grown to an optical density (OD600) of ~0.2 measured using a Microplate Spectrophotometer (Molecular Devices Spectra Max Plus). 100 μL of microbial culture containing ~5×10^5 CFU/mL of bacteria in the respective broths were introduced into each well containing 100 μL of peptides and incubated overnight at 37° C. Next, to check the bactericidal effects, 100 μL from each well was transferred and spread on sterile MH2 agar plates. The plates were incubated overnight at 37° C. and the number of colonies forming units (CFU) were calculated the following day. Readings of bacteria grown in media without any treatments were normalized to 100% as media control. For the mixed infection study, three freshly plated bacteria colonies each from PA, SA and ST plates were grown together in cation adjusted MH2 broth and proceeded as described above.

[2] = test system: Staphylococcus aureus (SA); experiment: Broth microdilution anti-bacterial assay (CLSI), Staphylococcus aureus; assay type: cell-based
Description: as §1, §2, §3

[3] = test system: Pseudomonas aeruginosa PA BAA-2110; experiment: Broth microdilution, PA BAA-2110 (lung infection in cystic fibrosis); assay type: cell-based, Pseudomonas aeruginosa (BAA-2110); conditions: Pseudomonas aeruginosa, BAA2110
Description: (§4) Bacteria strains involved in lung infection in cystic fibrosis patients (PA-BAA 2110) and ear-eye infections (PA-CRM 9027) are treated with exemplary variant peptides, such as E1AM2 and Q19L.
as §3

[4] = test system: Pseudomonas aeruginosa PA CRM-9027; experiment: Broth microdilution, PA CRM-9027 (ear-eye infections); assay type: cell-based, Pseudomonas aeruginosa (CRM-9027); conditions: Pseudomonas aeruginosa, PACRM9027
Description: as §4, §3

[5] = test system: mixed bacterial infection (PA, SA and ST); experiment: Broth microdilution, mixed bacterial infection; assay type: cell-based
Description: Chronic wounds mostly present mixed infections where numerous pathogens colonize together.
as §3

[6] = test system: Pseudomonas aeruginosa (PA); experiment: Antimicrobial resistance evolution assay, PA; assay type: cell-based; conditions: for development of antimicrobial resistance, PA: serial passaging, 28 days, resistance = >4-fold MIC change
Text: The development of antimicrobial resistance is defined by greater than a 4-fold change to their initial minimum inhibitory concentration (MIC) at day 1. Exemplary bacteria strains Pseudomonas aeruginosa (PA) and Staphylococcus aureus (SA) are subjected to continuous daily serial passaging over several days, with treatment of exemplary variant peptides E1AM2 (SEQ ID NO: 2) and Q19L (SEQ ID NO: […]) at subinhibitory concentrations. […] The treatments were discontinued when the MIC increased by more than four-fold from the initial MIC or when MIC reached >100 μM.
Briefly, sequential passaging of PA, and SA cells was done with sub-inhibitory concentrations of antibiotics or E1AM2 up to 4 weeks. The cells grown in those concentrations of antibiotics or peptides were diluted to A600 nm (OD600) of ~0.2 and serially passaged daily with the same concentrations at 37° C. with agitation at 24 h intervals.

[7] = PA, overnight, 37° C., ≥99% inhibition
[8] = SA, overnight, 37° C., ≥99% inhibition

Row | Compound | MIC [1, 7] | MBC ([1]; PA, ≥99% killing) | MIC [2, 8] | MBC ([2]; SA, ≥99% killing) | further results
1 | CC(C)C[C@H](NC(=O)[C@H](CO)NC(=O)[C@H](CC(C)C)NC(=O)[C@H](C)NC(=O)[C@H](CC(C)C)NC(=O)[C@H](CCCCN)NC(=O)[C@H](CC(C)C)NC(=O)C(C)(C)NC(=O)[C@H](CCCCN)NC(=O)[C@H](CCCCN)NC(=O)[C@H](CO)NC(=O)[C@H](CC(C)C)NC(=O)[C@H](CCCCN)NC(=O)[C@H](CC(C)C)NC(=O)[C@H](Cc1c[nH]c2ccccc12)NC(=O)[C@H](CCCCN)NC(=O)[C@H](CCCCN)NC(=O)[C@H](CC(C)C)NC(=O)[C@H](CC(C)C)NC(=O)[C@H](CCCCN)NC(=O)[C@@H](N)CCCCN)C(N)=O [V8LQ19LA14Aib] (H-KKLLKKWLKLSKK[Aib]LKLALSL-NH2) | 3.126 µM (≈ 7.7 µg/mL) | 6.25 µM (≈ 15.4 µg/mL) | 3.125 µM (≈ 7.7 µg/mL) | 6.25 µM (≈ 15.4 µg/mL) | 
2 | KKLLKKWVKLSKKKLKLAQSL-NH2 [A14K] | 12.5 µM | 12.5 µM | 12.5 µM | 12.5 µM | 
3 | CC(C)C[C@@H](NC(=O)[C@@H](CO)NC(=O)[C@@H](CC(C)C)NC(=O)[C@@H](C)NC(=O)[C@@H](CC(C)C)NC(=O)[C@@H](CCCCN)NC(=O)[C@@H](CC(C)C)NC(=O)[C@@H](C)NC(=O)[C@@H](CCCCN)NC(=O)[C@@H](CCCCN)NC(=O)[C@@H](CO)NC(=O)[C@@H](CC(C)C)NC(=O)[C@@H](CCCCN)NC(=O)[C@@H](CC(C)C)NC(=O)[C@@H](Cc1c[nH]c2ccccc12)NC(=O)[C@@H](CCCCN)NC(=O)[C@@H](CCCCN)NC(=O)[C@@H](CC(C)C)NC(=O)[C@@H](CC(C)C)NC(=O)[C@@H](CCCCN)NC(=O)[C@H](N)CCCCN)C(N)=O [D-V8LQ19L] (H-[dK][dK][dL][dL][dK][dK][dW][dL][dK][dL][dS][dK][dK][dA][dL][dK][dL][dA][dL][dS][dL]-NH2) | 3.125 µM (≈ 7.66 µg/mL) | 3.125 µM (≈ 7.66 µg/mL) | 3.125 µM (≈ 7.66 µg/mL) | 3.125 µM (≈ 7.66 µg/mL) | anti-bacterial activity (in words) [1]: retains the strong anti-bacterial effects
4 | KKLLKKLLKLSKKALKLALSL-NH2 [W7LV8LQ19L] | 3.125 µM | 3.125 µM | 1.58 µM | 1.58 µM | 
5 | CC(C)C[C@H](NC(=O)[C@H](CO)NC(=O)[C@H](CC(C)C)NC(=O)[C@H](C)NC(=O)[C@H](CC(C)C)NC(=O)[C@H](CCCCN)NC(=O)[C@H](CC(C)C)NC(=O)[C@H](C)NC(=O)[C@H](CCCCN)NC(=O)[C@H](CCCCN)NC(=O)[C@H](CO)NC(=O)[C@H](CC(C)C)NC(=O)[C@H](CCCCN)NC(=O)[C@H](CC(C)C)NC(=O)[C@H](Cc1cccc2ccccc12)NC(=O)[C@H](CCCCN)NC(=O)[C@H](CCCCN)NC(=O)[C@H](CC(C)C)NC(=O)[C@H](CC(C)C)NC(=O)[C@H](CCCCN)NC(=O)[C@@H](N)CCCCN)C(N)=O [W71NalV8LQ19L] (H-KKLLKK[1Nal]LKLSKKALKLALSL-NH2) | 3.125 µM (≈ 7.69 µg/mL) | 3.125 µM (≈ 7.69 µg/mL) | 1.56 µM (≈ 3.84 µg/mL) | 1.56 µM (≈ 3.84 µg/mL) | 
6 | KKLLKKWVKLKKKALKLAQSL-NH2 [S11K] | 12.5 µM | 12.5 µM | 12.5 µM | 12.5 µM | 
7 | KKLLKKWLKLSKKALKLA-NH2 [V8LQ19L C-3] | >6.25 µM | >6.25 µM | >6.25 µM | >8.26 µM | anti-bacterial activity (in words) [1]: strong potency
8 | KKLLKKWVKLSKKLLKLAQSL-NH2 [A14L] | 12.5 µM | 12.5 µM | 6.25 µM | 6.25 µM | 
9 | KKLLKKWVKLSKKALKLAQKL-NH2 [S20K] | 25 µM | 25 µM | 25 µM | 25 µM | 
10 | CN[C@@H]1[C@@H](O)C(O[C@@H]2[C@@H](O)[C@H](O[C@H]3O[C@H]([C@@H](C)NC)CC[C@H]3N)[C@@H](N)C[C@H]2N)OC[C@]1(C)O (stereo partly drawn) [Gentamicin, (3R,4R,5R)-2-{[(1S,2S,3R,4S,6R)-4,6-diamino-3-{[(2R,3R,6S)-3-amino-6-[(1R)-1-(methylamino)ethyl]oxan-2-yl]oxy}-2-hydroxycyclohexyl]oxy}-5-methyl-4-(methylamino) oxane-3,5-diol] |  |  |  |  | MBC [3]: 25 µM (≈ 11.9 µg/mL); MIC [3]: 25 µM (≈ 11.9 µg/mL); MBC [4]: 12.5 µM (≈ 5.97 µg/mL); MIC [4]: 6.25 µM (≈ 2.99 µg/mL); MIC [5]: 3.12 µM (≈ 1.49 µg/mL); MBC ([5]; mixed infection): 6.25 µM and 6.26 µM; MBC ([1]; Pseudomonas aeruginosa): 6.25 µM (≈ 2.99 µg/mL); MIC ([1]; Pseudomonas aeruginosa): 3.12 µM (≈ 1.49 µg/mL); MBC ([2]; Staphylococcus aureus): 3.25 µM (≈ 1.55 µg/mL); MIC ([2]; Staphylococcus aureus): 1.56 µM (≈ 0.745 µg/mL); AMR prevention / resistance induction ([6]; Table 15: in PA and SA, bacteria not named): induced resistance development in bacteria; development of antimicrobial resistance, PA [6]: developed resistance
11 | KKLLKKWLKLSKKALKLALS-NH2 [V8LQ19L C-1] | 3.125 µM | 3.125 µM | 3.125 µM | 3.125 µM | anti-bacterial activity (in words) [1]: strong potency
12 | KKLLKKWVKLSKKALKLAKSL-NH2 [Q19K] | 12.5 µM | 25 µM | 12.5 µM | 25 µM | 
13 | KKLLKKWVKLSKKALKLAQLL-NH2 [S20L] | 6.25 µM | 12.5 µM | 6.25 µM | 12.5 µM | 
14 | KKLLKKWVKLSKKALKLAQSL-NH2 [E1AM2-NH2] | 3.125 µM | 6.25 µM | 6.25 µM | 12.5 µM | MBC ([5]; mixed infection): 6.25 µM; MIC ([5]; mixed infection): 6.25 µM
15 | CC(C)C[C@H](NC(=O)[C@H](CO)NC(=O)[C@H](CC(C)C)NC(=O)C(C)(C)NC(=O)[C@H](CC(C)C)NC(=O)[C@H](CCCCN)NC(=O)[C@H](CC(C)C)NC(=O)[C@H](C)NC(=O)[C@H](CCCCN)NC(=O)[C@H](CCCCN)NC(=O)[C@H](CO)NC(=O)[C@H](CC(C)C)NC(=O)[C@H](CCCCN)NC(=O)[C@H](CC(C)C)NC(=O)[C@H](Cc1c[nH]c2ccccc12)NC(=O)[C@H](CCCCN)NC(=O)[C@H](CCCCN)NC(=O)[C@H](CC(C)C)NC(=O)[C@H](CC(C)C)NC(=O)[C@H](CCCCN)NC(=O)[C@@H](N)CCCCN)C(N)=O [V8LQ19LA18Aib] (H-KKLLKKWLKLSKKALKL[Aib]LSL-NH2) | 3.125 µM (≈ 7.7 µg/mL) | 3.125 µM (≈ 7.7 µg/mL) | 1.58 µM (≈ 3.89 µg/mL) | 1.56 µM (≈ 3.84 µg/mL) | 
16 | KKLLKKWVKLSKKALKLLQSL-NH2 [A18L] | 6.25 µM | 6.25 µM | 3.125 µM | 3.125 µM | 
17 | KKLLKKWVKLLKKALKLAQSL-NH2 [S11L] | 12.5 µM | 12.5 µM | 6.25 µM | 6.25 µM | 
18 | KKLLKKWVKLSKKALKLKQSL-NH2 [A18K] | 12.5 µM | 25 µM | 12.5 µM | 12.5 µM | 
19 | O=C(O)c1cn(C2CC2)c2cc(N3CCNCC3)c(F)cc2c1=O [Ciprofloxacin, 1-cyclopropyl-6-fluoro-4-oxo-7-(piperazin-1-yl)-quinoline-3-carboxylic acid] |  |  |  |  | MBC ([5]; mixed infection): 25 µM (≈ 8.28 µg/mL); development of antimicrobial resistance, PA [6]: developed resistance
20 | KKLLKKWKKLSKKALKLAQSL-NH2 [V8K] | 3.125 µM | 3.126 µM | 12.5 µM | 12.5 µM | 
21 | KKLLKKKVKLSKKALKLAQSL-NH2 [W7K] | 12.5 µM | 12.5 µM | 12.5 µM | 25 µM | 
